# Reference: patent publication US7169568B2, “Method for screening molecules that exert a neurotrophic effect through activation of neurotrophin receptors” (New York University, priority 2000, dated 2007)
# Legend:
# [1] = test system: TrkB receptors; assay: Trk receptor phosphorylation in primary E17 hippocampal neurons (immunoprecipitation, anti-phosphotyrosine Western blot); assay type: cell-based, rat; conditions: two hours
# Description: FIGS. 4A and 4B show Western blots on adenosine activation of Trk receptors in hippocampal neurons. Primary cultures of E17 hippocampal neurons were prepared as described in the Materials and Methods of Example 1 and treated with (FIG. 4A) CGS 21680 (10 nM) or BDNF (1 ng/ml) for various times and (FIG. 4B) either adenosine (10 μM), CGS 21680 (10 nM), CPA (10 nM) or BDNF (10 ng/ml) for 2 hr. Activation of TrkA receptors was assessed by immunoprecipitation and Western blotting with anti-phosphotyrosine antibody.
# (§1) Immunoprotection and Immunoblotting. PC12 cells or PC12-615 cells (Hempstead et al, 1992), were maintained in Dulbecco's Modified Eagle's Medium (DMEM) containing 10% fetal bovine serum (FBS) supplemented with 100 units/ml penicillin, 100 μg/ml streptomycin, and 2 mM glutamine plus 200 μg/ml G418. Cells were placed in low serum medium (1% FBS, 0.5% horse serum) overnight prior to experiments. Cell lysates from PC12, 615 cells, or hippocampal cells were incubated in lysis buffer (1% NP40) for 4 hours to overnight at 4° C. with anti-pan-Trk polyclonal antibody, followed by incubation with protein A-Sepharose beads. Equivalent amounts of protein were analyzed for each condition. The beads' were washed five times with lysis buffer and the immune complexes were boiled in SDS-sample buffer and loaded on sodium dodecyl sulfate-polyacrylamide electrophoresis (SDS-PAGE) gels for immunoblot analysis. The immunoreactive protein bands were detected by ECL reagents based upon enhanced chemiluminescence procedure (Amersham Pharmacia).
# Hippocampal Cell Cultures. Dissociated primary cultures of hippocampal neurons from embryonic day 17 (E17) rats were prepared from timed-pregnant Sprague-Dawley rats as described previously (Aibel et al, 1998). Fetuses were removed under sterile conditions and kept in PBS on ice for microscopic dissection of the hippocampus. The meninges were removed and the tissue was placed in Neurobasal media (Gibco BRL). […] Cells were counted and then plated on culture wells coated with 0.01 mg/ml poly-D-lysine overnight. […]
# [2] = test system: NGF-differentiated PC12 cells; assay: Cell death assay (LDH release), NGF-differentiated PC12 cells after NGF and serum withdrawal; assay type: cell-based; conditions: one-time treatment, 48 hours in the absence of NGF, LDH release
# Description: (§2) FIGS. 6A and 6B show graphs on the trophic effects of adenosine in PC12 and hippocampal cells deprived of neurotrophins. In FIG. 6A, NGF-differentiated PC12 cells were prepared and then NGF and serum were withdrawn for 48 hours as described in the Materials and Methods section of Example 1. Upon NGF withdrawal, various concentrations of CGS 21680 (CGS) were added to the media. CON =No Addition. […] In FIG. 6B, hippocampal neurons were prepared and B27 was withdrawn for 48 hrs as described in the Materials and Methods section of Example 1. Upon B27 withdrawal, various concentrations of CGS 21680 (CGS) were added to the media. […] All LDH levels were quantitated and % cell death calculated as described in the Materials and Methods section of Example 1. All bars depict mean+SEM from three independent experiments.
# Cell Death Assay. PC12 cells were differentiated in Dulbecco's modified Eagle's medium (DMEM), supplemented with 0.33% fetal bovine serum, 0.67% heat-inactivated horse serum, 2 mM L-glutamine and NGF (50 ng/ml) for 7 days. Serum and NGF were then removed, and adenosine agonists or growth factors added to the media. After 48 hrs, cell death was quantified by measuring lactate dehydrogenase (LDH) released from injured cells into the media using the Cytox 96 Cytotoxicity Assay Kit (Promega, Madison, Wis.). LDH values were normalized by subtracting the LDH released by cells maintained in NGF (50 ng/ml) and scaling to a full kill (=100%) reference induced by 5 min treatment with 1% Triton, an exposure that consistently killed all PC12 cells.
# [3] = test system: hippocampal neurons; assay: Cell death assay (LDH release), hippocampal neurons after B27 withdrawal; assay type: cell-based, rat
# Description: as §2, with “.” for “FIGS. 6A and 6B show graphs on the trophic effects of adenosine in PC12 and hippocampal cells deprived of neurotrophins.”
# Hippocampal Cell Cultures. Dissociated primary cultures of hippocampal neurons from embryonic day 17 (E17) rats were prepared from timed-pregnant Sprague-Dawley rats as described previously (Aibel et al, 1998). Fetuses were removed under sterile conditions and kept in PBS on ice for microscopic dissection of the hippocampus. The meninges were removed and the tissue was placed in Neurobasal media (Gibco BRL). The tissue was briefly minced with fine forceps and then triturated with a fire polished pasteur pipet. Cells were counted and then plated on culture wells coated with 0.01 mg/ml poly-D-lysine overnight. Hippocampal cells were maintained in Neurobasal media, containing B27 supplement and L-glutamine (0.5 mM). Experiments were conducted 7–10 days after plating.
# Hippocampal neurons were maintained in Neurobasal media containing B27 supplement and 0.5 mM L-glutamine for 10 days. B27 was then removed, and adenosine agonists or BDNF (100 ng/ml) was added to the media. MK-801 (1 μM) was added to all conditions, to decrease the contribution of NMDA-mediated cell death. After 48 hrs, cell death was assessed by measurement of LDH released into media.
# [4] = test system: MAP kinase; assay: MAP kinase activation in PC12 cells (anti-phospho MAP kinase immunoblot); assay type: cell-based; conditions: PC12 cells, adenosine 10 μM, within 10 minutes
# Description: as §1, with “PC12 cells (615) were treated with adenosine (10 μM) for various times in the presence or absence of […] (100 nM) or LY294002 (10 μM). The cells were subsequently harvested in lysis buffer; lysates and immunoprecipitated samples were subsequently immunoblotted with anti-phospho MAP kinase, anti-phospho Akt, and anti-phosphotyrosine. Reprobing with anti-MAP kinase and anti-pan-Trk antibodies was carried out to ensure equal protein loading. Immunoprotection” for “Immunoprotection”, “The beads' were washed five times with lysis buffer and the immune complexes were boiled in SDS-sample buffer and loaded on sodium dodecyl sulfate-polyacrylamide electrophoresis (SDS-PAGE) gels for immunoblot analysis.” left out
SMILES,Phosphorylation of TrkB receptors ([1]; 10 nM),Cells rescued [2] [%],"Cells rescued ([3]; 48 hrs after B27 withdrawal, absence of BDNF, LDH release)",Dose dependence of survival action ([3]; various concentrations upon B27 withdrawal),Phosphorylation of TrkB receptors ([1]; 10 μM),Phosphorylated MAP kinase [4]
"CCNC(=O)[C@H]1O[C@@H](n2cnc3c(N)nc(NCCc4ccc(CCC(=O)O)cc4)nc32)[C@H](O)[C@@H]1O [CGS 21680, 2-[(4-(2-carboxyethyl)phenylethyl)]aminoadenosine-5′-N-ethylcarboxamide]",gave rise to phosphorylated TrkB receptors,~50,greater than 60%,dose-dependent,,
Nc1ncnc2c1ncn2[C@@H]1O[C@H](CO)[C@@H](O)[C@H]1O [adenosine],,,,,gave rise to phosphorylated TrkB receptors,marked increased in phosphorylated MAP kinase
